The record followed here is US8546430B2, “Thalidomide analogs” (P2D, Inc., priority 2003, dated 2013).

“Also recorded” adds a separate entry of the source.

One series relates to rat aortic ring. Put plainly: Rat aortic ring microvessel growth assay. Format: cell-based. Particulars: 0.1-20 μg/ml daily for 4 days; FIGS. 2-11. The protocol:
The angiogenesis modulating activity of representative compounds was assessed in a rat aortic ring microvessel growth assay. Briefly, twelve-well tissue culture plates were coated with 250 μl of Matrigel (Becton-Dickinson, Bedford, Mass.) and allowed to gel for 30 min at 37° C. and 5% CO2. Thoracic aortas were excised from 8- to 10-week-old male Sprague Dawley rats. After careful removal of fibroadipose tissues, the aortas were cut into 1-mm-long cross-sections, placed on Matrigel-coated wells, and covered with an additional 250 μl of Matrigel. After the second layer of Matrigel had set, the rings were covered with EGM-II and incubated overnight at 37° C. and 5% CO2. EGM-II consists of endothelial cell basal medium (EBM-II; Clonetics, San Diego, Calif.) plus endothelial cell growth factors provided as the EGM-II Bulletkit (Clonetics). The culture medium was subsequently changed to EBM-II supplemented with 2% fetal bovine serum, 0.25 μg/ml amphotericin B, and 10 μg/ml gentamicin. Aortic rings were treated daily with either the vehicle (0.5% DMSO), carboxyamidotriazole (CAI, 12 μg/ml), thalidomide or thalidomide analogs (0.1-20 μg/ml) for 4 days and photographed on the 5th day using a ×2.5 objective. CAI, a known antiangiogenic agent, was used at higher than clinically achievable concentration as a positive control. Experiments were repeated four times using aortas from four different rats. The area of angiogenic sprouting, reported in square pixels, was quantified using Adobe PhotoShop. Further details of the method are provided in Luzzio et al., J Med Chem.; 46:3793-9, 2003, which is incorporated by reference herein. It should be understood that this method can be used as an assay to rapidly select compounds having a desired angiogenic or anti-angiogenic effect, for example, for use in the disclosed methods of treating a subject.

Another series concerns PBMC. Briefly: Cellular viability of PBMCs by MTS assay. Format: cell-based, human. The protocol:
(§1) The action of the these thiothalidomide analogs in inhibiting TNF-α secretion was assessed in human peripheral blood mononuclear cells (PBMC) and the results are shown in Table 1. Freshly prepared PBMCs were utilized in all studies. Blood, 40 ml, was drawn from a volunteer, immediately mixed with 50 U/ml Na heparin and was diluted to 50 ml total volume with sterile PBS. Samples, 20 ml, of this preparation then were layered on 20 ml Ficoll-Paque and were centrifuged (800 g, 20 min). The Ficoll/serum interface, containing PBMCs, was collected, diluted to 200 ml with PBS, and then was centrifuged (800 g, 15 min) to pellet the cells. Thereafter, the recovered pellet was re-suspended in 37° C. tissue culture medium (RPMI/1 mM Sodium pyruvate/10% heat inactivated FBS/2 mM Glutamax) and placed on ice. Recovered cells were counted, pipetted (200 ul of 5×10^5/ml) into 96 well plates, and incubated for an hour (37° C., 5% CO2). Thereafter, appropriate concentrations of test compounds or vehicle (10 ul DMSO) were added to duplicate wells. Following a further hour of incubation, a 10 ul sample of lipopolysaccharide (LPS) (100 ng/ml in supplemented medium) or vehicle was added to induce stimulated and unstimulated cells, respectively, and the cells were incubated overnight. Sixteen hours later, supernatants were collected for quantification of TNF-α levels by ELISA assay (Pierce-Endogen human TNF-α mini kit, Rockford, Ill.) and the use of specific capture and detection monoclonal antibodies, M303E and M302B (Pierce-Endogen), respectively. ELISA plates were read at λ=450 nm and TNF-α levels were determined from a six-point calibration curve that was run concurrently with the test samples. The effect of test drug concentrations on the cellular viability of PBMCs was assessed by MTS assay (Promega, Madison, Wis.) of the cells that provided the supernatant samples assayed for TNF-α levels, described above. It should be understood that this method can be used to test any of the disclosed compounds as a screening assay for readily determining their TNF-α modulating activity, and for selecting them for use in the disclosed method of treating a subject.

A further series relates to TNF-α. Put plainly: Inhibition of LPS-induced TNF-α secretion in human PBMC (ELISA). Format: cell-based. Particulars: for IC50 / inhibition at 30 µM / % Inhibition at 30 μM: LPS-induced TNF-α production in PBMC; for TNF-α inhibitory activity (in words): LPS-stimulated PBMC. The method, then: as §1
(ELISA stands for enzyme-linked immunosorbent assay.)

As a reminder, the IC50 is the concentration that gives 50% inhibition. A higher IC50 goes with lower potency. For orientation: inhibition means how much of the control response was suppressed. A low value points to little suppression. A word on the % Inhibition: it is how much of the control response was suppressed. Low values mean little suppression, high ones strong suppression. Usually EC50 stands for the midpoint of the concentration-response curve. Higher therefore signals weaker potency.

As for `CC12CCC(C(=O)NC3CCC(=O)NC3=O)(OC1=O)C2(C)C` (centres unmarked) [3-Camphanic amino-2,6-piperidinedione], the “Angiogenic modulating activity (in words)” value in the series on rat aortic ring is listed as “potent angiogenic activity at all concentrations tested; also recorded: exhibited angiogenic activity”.
Consider `COc1ccc(N2C(=O)c3ccccc3C2=O)c(OC)n1` [Compound 5, 1,3-Dioxo-2-(2,6-dimethoxypyridin-3-yl)-isoindoline], for which the “Angiogenic modulating activity (in words)” value in the series on rat aortic ring is given as “angiogenic activity at all concentrations tested”.
Take `Br.COc1ccc(N2C(=O)c3ccccc3C2=O)c(O)n1` [Compound 6, 1,3-Dioxo-2-(2-hydroxy-6-methoxypyridin-3-yl)-isoindoline hydrobromide]: the “Angiogenic modulating activity (in words)” value in the series on rat aortic ring was “anti-angiogenic activity in the rat aortic ring assay at all concentrations tested”.
For `CC(=O)Oc1ccccc1C(=O)NC1CCC(=O)NC1=O` (centres unmarked) [Compound 24, 2-acetoxy-N-(2,6-dioxopiperidin-3-yl)benzamide], the “Angiogenic modulating activity (in words)” value in the series on rat aortic ring was “potent angiogenic activity”.
Take `COC(=O)CCC(C(=O)OC)N1C(=O)c2ccccc2C1=S` (centres unmarked) [Compound 208, Dimethyl 2-(1,3-dihydro-1-oxo-3-thioxo-2H-isoindol-2-yl)-pentanedioate]: in the series with PBMC, the “Toxicity / cytotoxicity (in words)” value was “without toxicity”, the Cell viability at 0.3 μM is 96%, the Cell viability at 3 μM is 99% and the Cell viability at 30 μM turned out to be 93%. In addition, half-maximal inhibition in the series with TNF-α (Homo sapiens) (IC50) was put at 20 µM. Further, in the series on TNF-α (Homo sapiens, 30 μM), the inhibition at 30 µM is 56%.
Take `COC(=O)CCC(C(=O)OC)N1C(=S)c2ccccc2C1=S` (centres unmarked) [Compound 209, Dimethyl 2-(1,3-dihydro-1,3-dithioxo-2H-isoindol-2-yl)-pentanedioate]: in the series on PBMC, the “Toxicity / cytotoxicity (in words)” value is reported as “induced cellular toxicity at lower concentrations”, the Cell viability at 0.3 μM worked out at 89%, the Cell viability at 3 μM turned out to be 86% and the Cell viability at 30 μM came to 57%. The half-inhibitory concentration (IC50) with TNF-α (Homo sapiens) came to 10 µM. The same compound yielded an inhibition at 30 µM with TNF-α (Homo sapiens, 30 μM) of 85%. In the series with TNF-α (TNF-α inhibitory action), the “Fold more potent than 208” value is listed as 2 fold.
In the case of `O=C1c2ccccc2C(=NCc2ccccc2)N1Cc1ccccc1` [Compound 210, 3-Benzylimino-2-benzyl-2,3-dihydroisoindol-1-one], in the series on rat aortic ring, the “Angiogenic modulating activity (in words)” value is recorded as “exhibited angiogenic activity”.
With `S=C1c2ccccc2C(=S)N1C1CC=CCC1` (centres unmarked) [Compound 222, 2-(3-Cyclohexenyl)-1H-isoindol-1,3(2H)-dithione], in the series with PBMC, the “Toxicity / cytotoxicity (in words)” value is “some toxicity at 30 μM”, the Cell viability at 0.3 μM was found to be 96%, the Cell viability at 3 μM stood at 94% and the Cell viability at 30 μM is 50%. Further, in the series on rat aortic ring, the “Angiogenic modulating activity (in words)” value was “anti-angiogenic activity at higher concentrations and angiogenic activity at lower concentrations”. Moreover, in the series on TNF-α, half-maximal inhibition (IC50) was put at 15 µM and the “TNF-α inhibitory activity (in words)” value is “active TNF-α inhibitors”. The “% Inhibition at 30 μM” value in the series with TNF-α (30 μM) turned out to be 86%.
In the series on TNF-α (Homo sapiens, PBMC, TNF-α assay of Example 11), `Nc1ccc2c(=O)n(C3CCC(=O)NC3=O)c(=O)oc2c1` (centres unmarked) [Compound 228, 3-[2′,6′-piperidinedion-3′-yl]-7-amino-2H-1,3-benzoxazine-2,4(3H)-dione] showed an EC50 of 0.4 µM. Also, the “TNF-α inhibitory activity (in words)” value in the series with TNF-α is “potent inhibitory action on TNF-α”.
Take Monothiophthalimide [Compound 225]: in the series on PBMC, the “Toxicity / cytotoxicity (in words)” value is listed as “without toxicity”, the Cell viability at 0.3 μM turned out to be 94%, the Cell viability at 3 μM amounted to 94% and the Cell viability at 30 μM is above 100%. For the same compound, in the series with TNF-α (30 μM), the “Inhibition of TNF-α secretion at 30 μM (in words)” value is recorded as “marginal TNF-α activity” and the “% Inhibition at 30 μM” value worked out at 34%. In the series with TNF-α, the concentration for half-maximal inhibition (IC50) is above 30 µM.
